Measured values published in PMC7093416, “Selective USP7 inhibition elicits cancer cell killing through a p53-dependent mechanism” (Scientific Reports, 2020).

Tested on: panel of 484 cancer cell lines
Experiment: PRISM cancer cell line profiling, 5 days
Type: cell-based
Design: AUC: unit not given beside the values
Experimental: Cancer cell line profiling was performed using the Broad’s PRISM platform. Cell treatment and data analysis were performed as described in Yu et al[42]. Raw Luminex signal was converted to AUC values for each cell line as described. The resulting AUC profile for each compound was modeled against DepMap using the limma package in R[71]. Because hotspot mutation analysis was performed against DepMap, TP53 annotations in Fig. 6c,d are directly from DepMap.

## CN1CCN(CCC(=O)Nc2ccc3c(=O)n(CC4(O)CCN(C(=O)[C@H](CCCNC(=O)c5ccc6c(Cl)c7c(nc6c5)CCCC7)Cc5ccccc5)CC4)cnc3c2)CC1 [XL177B]
RT112_URINARY_TRACT
  AUC: 0.9816
RVH421_SKIN
  AUC: 0.8995
S117_SOFT_TISSUE
  AUC: 0.9955
SBC5_LUNG
  AUC: 1.053
SCABER_URINARY_TRACT
  AUC: 1.101
SCC25_UPPER_AERODIGESTIVE_TRACT
  AUC: 0.9004
SF126_CENTRAL_NERVOUS_SYSTEM
  AUC: 0.9271
SF295_CENTRAL_NERVOUS_SYSTEM
  AUC: 1.235
SF539_CENTRAL_NERVOUS_SYSTEM
  AUC: 0.9498
SH4_SKIN
  AUC: 0.9224
SH10TC_STOMACH
  AUC: 1.086
SIMA_AUTONOMIC_GANGLIA
  AUC: 1.191
SJSA1_BONE
  AUC: 1.13
SKES1_BONE
  AUC: 0.9809
SKHEP1_LIVER
  AUC: 0.9481
SKLU1_LUNG
  AUC: 1.195
SKMEL2_SKIN
  AUC: 0.945
SKMEL3_SKIN
  AUC: 1.224
SKMEL5_SKIN
  AUC: 1.137
SKMEL24_SKIN
  AUC: 1.275
SKMEL30_SKIN
  AUC: 1.1049
SKMES1_LUNG
  AUC: 1.035
SKNAS_AUTONOMIC_GANGLIA
  AUC: 1.162
SKNBE2_AUTONOMIC_GANGLIA
  AUC: 0.9661
SKOV3_OVARY
  AUC: 1.113
SKUT1_SOFT_TISSUE
  AUC: 1.098
SNB75_CENTRAL_NERVOUS_SYSTEM
  AUC: 1.029
SNGM_ENDOMETRIUM
  AUC: 1.214
SNU46_UPPER_AERODIGESTIVE_TRACT
  AUC: 1.023
SNU61_LARGE_INTESTINE
  AUC: 1.357
SNU81_LARGE_INTESTINE
  AUC: 1.469
SNU213_PANCREAS
  AUC: 0.9253
SNU245_BILIARY_TRACT
  AUC: 1.172
SNU308_BILIARY_TRACT
  AUC: 1.2193
SNU398_LIVER
  AUC: 1.038
SNU407_LARGE_INTESTINE
  AUC: 0.8767
SNU410_PANCREAS
  AUC: 1.127
SNU423_LIVER
  AUC: 1.115
SNU449_LIVER
  AUC: 0.9807
SNU466_CENTRAL_NERVOUS_SYSTEM
  AUC: 0.8672
SNU601_STOMACH
  AUC: 1.056
SNU668_STOMACH
  AUC: 0.9502
SNU685_ENDOMETRIUM
  AUC: 0.9823
SNU719_STOMACH
  AUC: 1.037
SNU738_CENTRAL_NERVOUS_SYSTEM
  AUC: 1.115
SNU761_LIVER
  AUC: 1.164
SNU840_OVARY
  AUC: 1.115
SNU869_BILIARY_TRACT
  AUC: 1.118
SNU886_LIVER
  AUC: 1.231
SNU1041_UPPER_AERODIGESTIVE_TRACT
  AUC: 1.134
SNU1066_UPPER_AERODIGESTIVE_TRACT
  AUC: 1.18
SNU1076_UPPER_AERODIGESTIVE_TRACT
  AUC: 0.9825
SNU1077_ENDOMETRIUM
  AUC: 1.083
SNU1079_BILIARY_TRACT
  AUC: 1.166
SNU1105_CENTRAL_NERVOUS_SYSTEM
  AUC: 1.105
SNU1196_BILIARY_TRACT
  AUC: 1.09
SNU1214_UPPER_AERODIGESTIVE_TRACT
  AUC: 0.9564
SNUC2A_LARGE_INTESTINE
  AUC: 1.042
SNUC4_LARGE_INTESTINE
  AUC: 1.117
SNUC5_LARGE_INTESTINE
  AUC: 1.097
SQ1_LUNG
  AUC: 1.099
SUIT2_PANCREAS
  AUC: 1.021
SW480_LARGE_INTESTINE
  AUC: 1.084
SW579_THYROID
  AUC: 1.209
SW620_LARGE_INTESTINE
  AUC: 1.165
SW780_URINARY_TRACT
  AUC: 1.236
SW837_LARGE_INTESTINE
  AUC: 1.0717
SW900_LUNG
  AUC: 1.235
SW948_LARGE_INTESTINE
  AUC: 1.132
SW1088_CENTRAL_NERVOUS_SYSTEM
  AUC: 1.121
SW1271_LUNG
  AUC: 1.015
SW1353_BONE
  AUC: 0.6793
SW1573_LUNG
  AUC: 1.097
SW1710_URINARY_TRACT
  AUC: 1.102
SW1990_PANCREAS
  AUC: 1.083
T3M10_LUNG
  AUC: 1.12
T24_URINARY_TRACT
  AUC: 1.071
T47D_BREAST
  AUC: 1.066
T98G_CENTRAL_NERVOUS_SYSTEM
  AUC: 0.9969
TCCPAN2_PANCREAS
  AUC: 1.118
TCCSUP_URINARY_TRACT
  AUC: 1.104
TE1_OESOPHAGUS
  AUC: 1.328
TE4_OESOPHAGUS
  AUC: 1.033
TE5_OESOPHAGUS
  AUC: 0.9565
TE6_OESOPHAGUS
  AUC: 1.06
TE8_OESOPHAGUS
  AUC: 0.9218
TE9_OESOPHAGUS
  AUC: 1.298
TE10_OESOPHAGUS
  AUC: 0.9856
TE11_OESOPHAGUS
  AUC: 1.076
TEN_ENDOMETRIUM
  AUC: 0.9874
TM31_CENTRAL_NERVOUS_SYSTEM
  AUC: 1.105
TM87_SOFT_TISSUE
  AUC: 1.039
TOV21G_OVARY
  AUC: 0.7718
TOV112D_OVARY
  AUC: 0.9778
TT2609C02_THYROID
  AUC: 1.023
TT_OESOPHAGUS
  AUC: 1.189
TT_THYROID
  AUC: 0.9532
TUHR4TKB_KIDNEY
  AUC: 1.093
U2OS_BONE
  AUC: 1.264
U118MG_CENTRAL_NERVOUS_SYSTEM
  AUC: 1.3332
U251MG_CENTRAL_NERVOUS_SYSTEM
  AUC: 1.04
UACC62_SKIN
  AUC: 0.9925
UACC257_SKIN
  AUC: 0.9688
UBLC1_URINARY_TRACT
  AUC: 1.0896
UMUC1_URINARY_TRACT
  AUC: 1.045
UO31_KIDNEY
  AUC: 1.143
VMCUB1_URINARY_TRACT
  AUC: 0.9508
VMRCRCW_KIDNEY
  AUC: 1.069
VMRCRCZ_KIDNEY
  AUC: 1.083
WM88_SKIN
  AUC: 1.093
WM793_SKIN
  AUC: 1.133
WM983B_SKIN
  AUC: 1.143
WM1799_SKIN
  AUC: 0.7611
WM2664_SKIN
  AUC: 1.168
YAPC_PANCREAS
  AUC: 1.439
YD8_UPPER_AERODIGESTIVE_TRACT
  AUC: 1.127
YD10B_UPPER_AERODIGESTIVE_TRACT
  AUC: 0.9769
YD15_SALIVARY_GLAND
  AUC: 0.9723
YD38_UPPER_AERODIGESTIVE_TRACT
  AUC: 1.117
YH13_CENTRAL_NERVOUS_SYSTEM
  AUC: 1.068
YKG1_CENTRAL_NERVOUS_SYSTEM
  AUC: 1.107
ZR751_BREAST
  AUC: 0.9538
